This is an account of results in paper PMC4533973, “Synthesis and Evaluation of Chloramphenicol Homodimers: Molecular Target, Antimicrobial Activity, and Toxicity against Human Cells” (PLoS ONE, 2015).

Structures are written as SMILES. Where two headings read alike, the source gives them in different places.

One data set concerns Jurkat cells. Nature of the data set: Toxicity assays in Jurkat cells (cell counting, necrosis and apoptosis by flow cytometry). In kind it is cell-based, Human. To be noted: 60 μM; flow cytometry. The procedure:
Fig 8 Toxicity assays in Jurkat cells. Jurkat cells were adjusted to 1×10^9 cells/L in RPMI-1640 medium containing 1% Penicillin/Streptomycin and 10% fetal bovine serum. The cells were grown in triplicate in the presence or absence of compound 5 at the indicated concentrations for 4 days at 37°C, under a humidified 5% CO2 atmosphere. CAM was used as a reference compound. For cell necrosis and apoptosis assays, samples (10^6 cells) were collected daily and determined by flow cytometry. Apoptotic and necrotic cells were expressed as a percentage of total cells.
Human leukemic cell lines, HS-Sultan (Burkitt’s lymphoma), Jurkat (T-cell acute lymphoblastic leukemia), and U937 (histiocytic lymphoma), were adjusted to 1×10^9 cells/l in RPMI-1640 medium supplemented with 10% fetal bovine serum and 1% penicillin/streptomycin. The cells were grown in triplicate in the absence (control cultures) or presence of CAM or CAM dimers for 4 days at 37°C, under a humidified 5% CO2 atmosphere. The medium was changed daily; CAM or CAM dimer addition was repeated after medium change. Aliquots were collected daily and counted in a CELL-DYN 3700 Hematology Analyzer. For cell necrosis and apoptosis assays, samples (10^6 cells) were collected and determined using the Annexin V-PE Apoptosis Detection Kit I (BD Pharmingen) for flow cytometry, according to the manufacturers’ instructions. Flow cytometry data were analyzed using the FlowJo flow cytometry analysis software. Necrotic and apoptotic cells were expressed as a percentage of total cells.
On the technique in general: Flow cytometry measures light scatter and fluorescence of single cells or particles in a stream.

In data set [1] the test system is post-translocation ribosomal complex (complex C) derived from E. coli. Also noted: method as in Xaplanteri et al., [6]. To be noted: ref Xaplanteri et al., [6], cited from earlier work.
For the next data set, the system named is P. aeruginosa (GRE5288). As to the kind of experiment: Antibacterial activity (growth inhibition, EC50). The following applies: for EC50: Pseudomonas aeruginosa. The format is cell-based, Pseudomonas aeruginosa. The source says: (§1) A.S. Mankin (University of Illinois). E. coli ΔtolC strain BL21 DE3 with impaired AcrAB-TolC, a proton-dependent MDR efflux pump causing multidrug resistance, was offered by Dr D.N. Wilson (University of Munich) and included in our study to test if this mechanism of resistance affects the efficacy of CAM dimers. […] I. Spiliopoulou (National Reference Laboratory for Staphylococci, School of Medicine, University of Patras, Greece). Finally, E. coli strain Rosetta(DE3)pLysS, containing a chloramphenicol resistant gene in the pLysS plasmid, was purchased from Novagen and was also included in our study. Briefly, S. aureus or E. coli cells (200 μl of a 0.700 OD560 preculture) containing wild-type or mutant ribosomes were added in 3.8 ml of LB (Luria-Bertani) medium and grown at 37°C in the presence or absence of CAM or CAM dimers until the optical density of the control culture (grown in the absence of drug) reached the value 0.700 at 560 nm. For E. faecium and P. aeruginosa cultures, TSB (Tryptic Soy Broth) medium was used, instead of LB medium, in order to achieve exponential doubling times between 25 and 35 minutes. From dose-response curves, the half-maximal effective concentration (EC50) for each compound and strain was estimated. EC50 represents the molar concentration of a compound that produces 50% of the maximal possible effect. The EC50 values were mathematically determined by non linear regression fitting of the observed culture optical-density values, expressed as the percentage of 0.700 (y), into Hill Equation, y=min+max−min/1+(x/EC50)^−n where min and max are the lowest and highest observed values of the culture optical density, respectively, x the concentration of the tested compound, and n the Hill coefficient that represents the largest absolute value of the curve slope. EC50 is equal to the x- value of the sigmoid’s midpoint. Fitting was performed using the Four Parameter Logistic Curve of the SigmaPlot Program Version 11.0 (Systat Software, Inc) for Exact Graphs and Data Analysis.

Data set [2] relates to Escherichia coli ribosomes. Also noted: method as in earlier work. The following applies: equilibrium dialysis, cited from earlier work. A general note: Equilibrium dialysis compares concentrations on both sides of a semipermeable membrane.
The next data set deals with ribosome. Also noted: method as in PMID 14654696. The following applies: read-out: K i, cryptic low-affinity site (entrance to the exit tunnel); cited from earlier work.
The subject of data set [3] is E. coli Rosetta(DE3)pLysS. As to the kind of experiment: Antibacterial activity (growth inhibition, EC50). The following applies: Escherichia coli. The format is cell-based, Escherichia coli.
Text: as §1

The next data set has as its system E. coli (WT). As to the kind of experiment: Antibacterial activity (growth inhibition, EC50). The format is cell-based, Escherichia coli. The following applies: for EC50: Escherichia coli, LB medium, 37°C, OD560; for EC50(cell growth)/IC50(puro): wild-type E. coli, IC50(puro) calculated from Ki* at 2 mM puromycin.
Text: as §1

The next data set deals with E. coli (ΔtolC). Nature of the data set: Antibacterial activity (growth inhibition, EC50). The format is cell-based, Escherichia coli. The following applies: for EC50: Escherichia coli, BL21-DE3.
Text: as §1

A further data set deals with E. coli (A2058G). Nature of the data set: Antibacterial activity (growth inhibition, EC50). The following applies: Escherichia coli. The format is cell-based, Escherichia coli.
Text: as §1

The test system of a further data set is E. coli (A2503C). Nature of the data set: Antibacterial activity (growth inhibition, EC50). The format is cell-based, Escherichia coli. The following applies: Escherichia coli.
Text: as §1

A further data set deals with E. faecium (GRE5152). Nature of the data set: Antibacterial activity (growth inhibition, EC50). The format is cell-based. The following applies: Enterococcus faecium.
Text: as §1

The subject of the next data set is MRSA (GRE2272). Nature of the data set: Antibacterial activity (growth inhibition, EC50). The format is cell-based. To be noted: Staphylococcus aureus.
Text: as §1

For a further data set, the system named is MRSA (GRE2691). Nature of the data set: Antibacterial activity (growth inhibition, EC50). The format is cell-based. The following applies: Staphylococcus aureus.
Text: as §1

In the next data set the test system is S. aureus (WT). As to the kind of experiment: Antibacterial activity (growth inhibition, EC50). In kind it is cell-based. To be noted: Staphylococcus aureus.
Text: as §1

Data set [4] concerns post-translocation ribosomal complex (complex C) derived from E. coli. As to the kind of experiment: Inhibition of peptide-bond formation (puromycin reaction, AcPhe-puromycin synthesis). To be noted: for Ki: 25°C, buffer A. The format is biochemical. The procedure: The inhibitory effect of CAM dimers on peptide-bond formation was studied using the puromycin reaction, a model reaction between puromycin and a post-translocation ribosomal complex (complex C) derived from E. coli. Since puromycin, a pseudo-substrate of PTase which binds to the A-site of the catalytic center, was present in excess, the reaction obeyed first-order kinetics. The first-order rate constant, k obs, at each concentration of puromycin was determined by fitting the x values into Eq 1, ln100/100−x=kobst (1) where x is the product AcPhe-puromycin, expressed as the percentage of complex C added in the reaction mixture, and t is the time of the reaction.
A representative time plot obtained at 400 μM puromycin, in the absence of inhibitor, is illustrated in Fig 3A (upper line) and, as expected, is characterized by linearity. However, when the reaction proceeded in the presence of a CAM dimer, e.g. compound 5, the time plots were characterized by two unique features that distinguish them from a typical kinetic behavior. […] Second, the slopes of both progress curves varied as a function of the inhibitor concentration (Fig 3A, four lower curves). […] These kinetic results are consistent with compound 5 operating through an induced fit mechanism (Fig 3C), in which the inhibitor first binds rapidly to complex C to form the encounter complex CI, which then undergoes a slow conformational change to produce a final, tighter complex C*I. Corroborative evidence for the consistency of this model is provided by the hyperbolic shape of the equilibration plots (k eq versus [I]), in which k eq represents the apparent rate constant for the attainment of equilibrium among C, CI, and C*I (Fig 3B). If one-step mechanism of inhibition was applicable (C + I ⇄ C*I), k eq should be a linear function of [I] [27]. […] Because the isomerization constant k on/k off was calculated to be 3.6, the inhibition process was finally associated with high overall inhibition of peptide-bond formation (Ki* = 0.3 μM; S1 Fig, panel C). In addition, the slow k off rate (0.64 min^-1) provided prolonged residence time for compound 5 at the ribosome, a behavior potentially predicting good efficacy in vivo [28].
The puromycin reaction, i.e. the reaction between complex C and excess puromycin (S), was carried out at 25°C in buffer A [100 mM Tris-HCl pH 7.2, 6 mM (CH3COO)2Mg, 100 mM NH4Cl and 6 mM 2-mercaptoethanol]. Under these conditions, the puromycin reaction obeys C + S ⇄KS CS→kcat C^′ + S pseudo-first-order kinetics and was analyzed as previously described.
In the presence of CAM dimers, biphasic semi-logarithmic time plots were obtained. The slope of the straight line through the origin was seen as the value of the apparent rate constant, k obs(early), at the early phase of the reaction. Similarly, the slope of the second straight line was taken as the apparent rate constant, k obs(late), at the late phase of the puromycin reaction.

Setting [5] is: LB medium, 37°C, OD560, read-out: EC50.

Broadly, the EC50 is the concentration giving half of the maximal effect. Take `O=C(N[C@H](CO)[C@H](O)c1ccc([N+](=O)[O-])cc1)C(Cl)Cl` [CAM, chloramphenicol]: the “apoptosis, expressed as a percentage of total cells” value in the data set with Jurkat cells is reported as “did not induce any necrosis/apoptosis effect”. In the data set with Jurkat cells, the necrosis result is recorded as “did not induce any necrosis/apoptosis effect”. The Ki in data set [1] (encounter complex CI) was 3.1 ± 0.3 µM; in data set [1] (overall inhibition constant), 0.88 ± 0.07 µM; at ribosome, roughly 300 µM. In addition, the k off in data set [1] was 0.0165 ± 0.00067 s⁻¹. The “fold higher EC50 value than wild-type E. coli” value with P. aeruginosa (GRE5288) (P. aeruginosa versus wild-type E. coli) turned out to be 6 fold. For the same compound, the EC50 with P. aeruginosa (GRE5288) amounted to 25.6 ± 2.2 µM; in data set [3] it was 115 ± 16.3 µM; with E. coli (WT), 4.4 ± 0.2 µM; in the data set on E. coli (ΔtolC), 2.2 ± 0.1 µM; in the data set on E. coli (A2058G), 15.9 ± 1.1 µM; in the data set on E. coli (A2503C), 24.9 ± 2.5 µM. Moreover, the EC50 turned out to be 3.5 ± 0.3 µM with E. faecium (GRE5152), 8.4 ± 0.7 µM in the data set with MRSA (GRE2272), 12.8 ± 1.5 µM in the data set on MRSA (GRE2691) and 2.9 ± 0.1 µM in the data set on S. aureus (WT). Besides, the Kd in [2] (read-out: K D, high affinity site) is 2 µM; in data set [2] (read-out: K D, low affinity site), 200 µM. For the same compound, the “EC50(cell growth)/IC50(puro)” value with E. coli (WT) is reported as 0.84 ± 0.07. In the data set on E. coli (ΔtolC) (E. coli BL21 DE3 (ΔtolC) versus wild-type E. coli), the “fold more sensitive than wild-type E. coli” value is reported as “approximately 2 fold”.

What is called melting point is the temperature, or range, at which the solid turns liquid. Turning to `O=C(CC(=O)N[C@H](CO)[C@H](O)c1ccc([N+](=O)[O-])cc1)N[C@H](CO)[C@H](O)c1ccc([N+](=O)[O-])cc1` [Compound 1, N^1,N^3-Bis((1R,2R)-1,3-dihydroxy-1-(4-nitrophenyl)propan-2-yl)malonamide], the melting point lay in the range of 142 to 143 °C. In addition, the EC50 in the data set on P. aeruginosa (GRE5288) (TSB medium, clinical isolate with MexAB-OprM and MexXY efflux, read-out: EC50) is greater than 100 µM. This compound came in with a Ki in data set [4] (encounter complex CI) of 2.4 ± 0.18 µM. This compound also returned a k off in data set [4] (nonlinear regression of k eq) of 0.01 ± 0.00083 s⁻¹. Also, the Ki in data set [4] (overall inhibition constant (CI + C*I)) was found to be 0.6 ± 0.05 µM. Besides, the “activity compared to CAM” value in data set [4] (ranking by K i*) is “comparable”. The EC50 in data set [3] is greater than 200 µM. For the same compound, in the data set on E. coli (WT), the EC50 was greater than 200 µM and the “EC50(cell growth)/IC50(puro)” value is listed as greater than 55.5. Further, the EC50 in the data set with E. coli (ΔtolC) was greater than 200 µM. In the data set on E. coli (A2058G), this compound returned an EC50 greater than 200 µM. In the data set with E. coli (A2503C), this compound showed an EC50 greater than 200 µM. Also, in the data set on E. faecium (GRE5152) (TSB medium, 37°C, OD560, read-out: EC50), the EC50 is greater than 200 µM. Further, the concentration for a half-maximal effect (EC50) in the data set on MRSA (GRE2272) (setting [5]) is greater than 200 µM. For the same compound, in the data set with MRSA (GRE2691) (setting [5]), the EC50 was greater than 200 µM. Moreover, the EC50 in the data set on S. aureus (WT) (setting [5]) worked out at 32.2 ± 1 µM.
